Measured values as given in patent publication US7109294B2, “Bacterial glycosyltransferase polypeptides involved in antibiotic resistance” (priority 2001, dated 2006).

Experiments:
Format in all cases: cell-based, Pseudomonas aeruginosa
[1] = test system: 30B1 mutant (PA1874 transposon insertion) biofilm grown cells
[2] = test system: P. aeruginosa PA14 wild type biofilm grown cells
[3] = test system: 45E7 mutant (PA1163 transposon insertion) biofilm grown cells
[4] = test system: 45E7 mutant planktonic cells; assay: microbe, parasite or virus in culture; conditions: for MBC: Pseudomonas aeruginosa, read-out: MBC-P, MBC of planktonically grown cells
[5] = test system: P. aeruginosa PA14 wild type planktonic cells; assay: microbe, parasite or virus in culture; conditions: for MBC: Pseudomonas aeruginosa, PA14, 24 h, read-out: MBC-P, MBC of planktonically grown cells
[6] = test system: 30B1 mutant planktonic cells; assay: microbe, parasite or virus in culture; conditions: for MBC: Pseudomonas aeruginosa, read-out: MBC-P, MBC of planktonically grown cells
wild type colony biofilm = test system: wild type colony biofilm
[7] = test system: wild type flow cell biofilm

| Compound | MBC-B, MBC of biofilm grown cells [1] [µg/mL] | MBC-B, MBC of biofilm grown cells [2] [µg/mL] | MBC of biofilm grown 45E7 lower compared to the wt [3] [fold] | MBC-B, MBC of biofilm grown cells [3] [µg/mL] | MBC [4] [µg/mL] | MBC [5] [µg/mL] | MBC [6] [µg/mL] | drop of viability in colony biofilm (wild type colony biofilm) [fold] | live versus dead cells in Tb-treated biofilm (BacLight) [7] | decrease of planktonic MBC relative to the biofilm-grown bacteria [5] [fold] | MBC-P, MBC of planktonically grown cells [4] [µg/mL] | MBC-P, MBC of planktonically grown cells [5] [µg/mL] | MBC-P, MBC of planktonically grown cells [6] [µg/mL] |
| --- | --- | --- | --- | --- | --- | --- | --- | --- | --- | --- | --- | --- | --- |
| O=C(O)c1cn(C2CC2)c2cc(N3CCNCC3)c(F)cc2c1=O [Cip, ciprofloxacin] | 12.5 | 50 | 8 | 6 | 4 | 4 | 4 | – | – | – | – | – | – |
| NC[C@H]1O[C@H](O[C@H]2[C@H](O)[C@@H](O[C@H]3O[C@H](CO)[C@@H](O)[C@H](N)[C@H]3O)[C@H](N)C[C@@H]2N)[C@H](N)C[C@@H]1O [Tb, tobramycin] | 100 | 400 | 16 | 25 | 8 | 8 | 8 | ~100 | more live than dead cells | 50 | – | – | – |
| gentamycin [Gm] | 250 | 500 | 8 | 60 | – | – | – | – | – | – | 40 | 40 | 40 |
